# Laboratory results taken from patent publication US20210188897A1, “NEUROACTIVE STEROIDS AND COMPOSITIONS AND METHODS THEREOF” (Sparx Therapeutics, Inc., priority 2019, published 2021).
# Where two headings read alike, the source gives them in different places.
# Legend:
# α1β2γ2 GABAA receptors = target: T1, α1β2γ2 GABAA receptors (Homo sapiens, UniProt P14867+P47870); assay: GABAAR modulator FLIPR assay (membrane potential), α1β2γ2; type: cell-based
# T1 construct: expressed in transfected cells; host or cells: 293T cells (ATCC-CRL-1573)
# T1 sequence (P18507 40-475 partner, one chain of several): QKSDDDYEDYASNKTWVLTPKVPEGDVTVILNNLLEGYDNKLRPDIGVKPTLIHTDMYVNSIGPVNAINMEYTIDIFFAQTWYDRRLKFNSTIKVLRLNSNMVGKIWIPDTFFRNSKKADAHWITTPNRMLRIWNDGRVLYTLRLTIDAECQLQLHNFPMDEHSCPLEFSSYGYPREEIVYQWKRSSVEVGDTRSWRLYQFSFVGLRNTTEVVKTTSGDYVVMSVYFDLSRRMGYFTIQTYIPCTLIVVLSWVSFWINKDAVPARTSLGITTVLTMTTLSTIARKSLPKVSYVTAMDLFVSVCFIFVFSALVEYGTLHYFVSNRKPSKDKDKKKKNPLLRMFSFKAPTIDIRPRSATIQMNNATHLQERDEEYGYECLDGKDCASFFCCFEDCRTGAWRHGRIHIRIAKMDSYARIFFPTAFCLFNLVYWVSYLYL
# Method: (§1) 293T cells (ATCC-CRL-1573) were applied for transient expression of α1β2γ2 or α1β2δ GABAA receptors. Cells were plated in a 96 well plate with a confluence of about 70%-80% and cultured overnight in complete medium without antibiotics. The α1β2γ2 or α1β2δ subunits were transfected via the lipofectamine method. The FLIPR assay was developed to quantitatively assess the compounds' PAM activity in α1β2γ2 and α1β2δ GABAA receptors. The FLIPR assays were conducted 48 h post-transfection. The FLIPR reagents were purchased from Molecular Devices Corporation (Membrane potential red kit, Catalog number R8126). The FMP-Red-Dye was reconstituted to 1× assay buffer. Growth medium was removed from the wells and cells were loaded with 100 μL FMP-Red-Due solution for 30 minutes in the dark at r.t. After dye loading, each plate was transferred to the FLIPR Tetra Station: the dye was excited at 510-545 nm, and the fluorescence signals were recorded at 565-625 nm. Baseline recordings were acquired for 1 minute. FMP-Red-Dye is a slow-response, potential sensitive probe and the maximal response is usually seen within 2 minutes after triggering cellular depolarization or hyperpolarization. After baseline recording, the different doses of compound solutions were firstly added on cells and the fluorescent signals were recorded for 5 minutes. Then the cells were followed by a second addition with ligand GABA solution and recorded for another 3.5 minutes. Cell responses were calculated as ΔF=Fmax−Fmin, where Fmax was the maximum response in arbitrary fluorescence units, and Fmin was the baseline arbitrary fluorescence unit value.
# α1β2δ GABAA receptors = target: T2, α1β2δ GABAA receptors (Homo sapiens, UniProt P14867+P47870); assay: GABAAR modulator FLIPR assay (membrane potential), α1β2δ; type: cell-based
# T2 construct: expressed in transfected cells; host or cells: 293T cells (ATCC-CRL-1573)
# T2 sequence (P14867 28-456): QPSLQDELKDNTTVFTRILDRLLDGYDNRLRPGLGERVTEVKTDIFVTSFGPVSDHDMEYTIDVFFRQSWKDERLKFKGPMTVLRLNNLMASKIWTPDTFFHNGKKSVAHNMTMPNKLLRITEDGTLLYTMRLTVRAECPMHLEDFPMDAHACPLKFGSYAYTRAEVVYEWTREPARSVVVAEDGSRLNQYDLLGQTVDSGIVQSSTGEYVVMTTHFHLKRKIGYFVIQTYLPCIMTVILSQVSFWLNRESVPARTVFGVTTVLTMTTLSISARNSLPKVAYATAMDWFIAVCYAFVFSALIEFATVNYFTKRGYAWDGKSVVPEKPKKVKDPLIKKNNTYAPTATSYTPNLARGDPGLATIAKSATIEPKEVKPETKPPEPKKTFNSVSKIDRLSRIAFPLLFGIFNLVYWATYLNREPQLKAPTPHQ
# T2 sequence (P47870 25-512 limits assumed): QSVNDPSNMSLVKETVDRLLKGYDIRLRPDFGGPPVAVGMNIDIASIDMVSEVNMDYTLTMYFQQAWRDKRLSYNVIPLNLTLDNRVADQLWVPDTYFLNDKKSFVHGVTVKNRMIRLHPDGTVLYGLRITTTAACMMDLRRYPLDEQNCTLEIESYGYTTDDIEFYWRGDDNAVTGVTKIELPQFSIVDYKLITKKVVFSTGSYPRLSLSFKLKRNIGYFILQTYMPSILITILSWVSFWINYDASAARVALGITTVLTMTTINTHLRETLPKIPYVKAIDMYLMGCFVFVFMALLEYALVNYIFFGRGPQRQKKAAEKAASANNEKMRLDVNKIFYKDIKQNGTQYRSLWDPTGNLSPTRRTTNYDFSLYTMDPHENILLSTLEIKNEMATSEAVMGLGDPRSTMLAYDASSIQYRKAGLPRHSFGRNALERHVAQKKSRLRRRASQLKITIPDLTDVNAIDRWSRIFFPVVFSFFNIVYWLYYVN
# T2 sequence (O14764 17-452 partner limits assumed): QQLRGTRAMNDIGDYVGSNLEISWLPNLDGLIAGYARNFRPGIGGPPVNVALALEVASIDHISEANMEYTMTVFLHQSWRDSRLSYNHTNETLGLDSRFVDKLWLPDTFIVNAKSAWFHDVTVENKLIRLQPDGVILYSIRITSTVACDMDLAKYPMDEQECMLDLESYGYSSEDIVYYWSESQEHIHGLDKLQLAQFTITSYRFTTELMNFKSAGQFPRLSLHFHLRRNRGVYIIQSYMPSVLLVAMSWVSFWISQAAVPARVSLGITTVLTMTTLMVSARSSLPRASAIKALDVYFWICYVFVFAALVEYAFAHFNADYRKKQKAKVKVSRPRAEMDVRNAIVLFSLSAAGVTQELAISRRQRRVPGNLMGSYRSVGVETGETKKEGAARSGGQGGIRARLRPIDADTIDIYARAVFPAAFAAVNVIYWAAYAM
# Method: as §1
# 5XFAD and wild type mice [1] = assay: Forced swim test; type: in vivo; conditions: 9-month old 5XFAD and wild type mice, 20 mg/kg oral gavage, 45 minutes post dosing; FIG. 3
# Method: 9-month old 5XFAD transgenic mice (expressing human APP and PSEN1 transgenes with 5 AD-linked mutations) and wild type litermates (C57/B16) were dosed as at 20 mg/kg via oral gavage. The cognitive and mood behavioral tests were performed 45 minutes post dosing.
# The forced swim test is a test for depression-like behavior in rodents. The assay involves observing a mouse stay afloat in a tank of water and monitoring how much time it spends immobile.
# 5XFAD and wild type mice [2] = assay: Open field test; type: in vivo; conditions: 9-month old 5XFAD and wild type mice, 20 mg/kg oral gavage, 45 minutes post dosing; FIG. 2
# Method: 9-month old 5XFAD transgenic mice (expressing human APP and PSEN1 transgenes with 5 AD-linked mutations) and wild type litermates (C57/B16) were dosed as at 20 mg/kg via oral gavage. The total distance travelled was recorded in an open field chamber 45 minutes post dosing.
# [3] = 293T cells transiently expressing α1β2γ2 GABAA receptors, FLIPR, PAM activity, read-out: EC50 in α1β2γ2/293T
# [4] = 293T cells transiently expressing α1β2δ GABAA receptors, FLIPR, PAM activity, read-out: EC50 in α1β2δ/293T
SMILES,EC50 (α1β2γ2 GABAA receptors; [3]) [nM],EC50 (α1β2δ GABAA receptors; [4]) [nM],EC50 (α1β2γ2 GABAA receptors) [nM],EC50 (α1β2δ GABAA receptors) [nM],"efficacy in forced swim test (time immobile, depression-like behavior) (5XFAD and wild type mice [1])",locomotor functions (total distance travelled in open field chamber) (5XFAD and wild type mice [2])
"C[C@@]1(O)CC[C@H]2[C@H](CC[C@@H]3[C@@H]2CC(F)(F)[C@]2(C)[C@@H](C(=O)Cn4cc(F)cn4)CC[C@@H]32)C1 [Example 7, 1-((3R,5R,8R,9R,10S,13S,14S,17S)-12,12-difluoro-3-hydroxy-3,13-dimethylhexadecahydro-1H-cyclopenta[a]phenanthren-17-yl)-2-(4-fluoro-1H-pyrazol-1-yl)ethan-1-one]",740,390,–,–,–,–
"C=C1C[C@H]2[C@@H](CC[C@@H]3C[C@](C)(O)CC[C@@H]32)[C@@H]2CC[C@H](C(C)=O)[C@@]12C [Example 2, 1-((3R,5R,8R,9R,10S,13S,14S,17S)-3-hydroxy-3,13-dimethyl-12-methylenehexadecahydro-1H-cyclopenta[a]phenanthren-17-yl)ethan-1-one]",280,98,–,–,–,–
"C=C1C[C@H]2[C@@H](CC[C@@H]3C[C@](C)(O)CC[C@@H]32)[C@@H]2CC[C@H](C#N)[C@@]12C [Example 1, (3R,5R,8R,9R,10S,13S,14S,17S)-3-hydroxy-3,13-dimethyl-12-methylenehexadecahydro-1H-cyclopenta[a]phenanthrene-17-carbonitrile]",–,–,270,81,–,–
"CC(=O)[C@H]1CC[C@H]2[C@@H]3CC[C@@H]4C[C@](C)(O)CC[C@@H]4[C@H]3CC(F)(F)[C@]12C [Example 5, 1-((3R,5R,8R,9R,10S,13S,14S,17S)-12,12-difluoro-3-hydroxy-3,13-dimethylhexadecahydro-1H-cyclopenta[a]phenanthren-17-yl)ethan-1-one]",390,190,–,–,–,–
"C[C@@]1(O)CC[C@H]2[C@H](CC[C@@H]3[C@@H]2CC(F)(F)[C@]2(C)[C@@H](C#N)CC[C@@H]32)C1 [Example 4, (3R,5R,8R,9R,10S,13S,14S,17S)-12,12-difluoro-3-hydroxy-3,13-dimethylhexadecahydro-1H-cyclopenta[a]phenanthrene-17-carbonitrile]",2950,710,–,–,–,–
"C[C@@]1(O)CC[C@H]2[C@H](CC[C@@H]3[C@@H]2CC(F)(F)[C@]2(C)[C@@H](C(=O)Cn4ccc(C#N)n4)CC[C@@H]32)C1 [Example 8, 1-(2-((3R,5R,8R,9R,10S,13S,14S,17S)-12,12-difluoro-3-hydroxy-3,13-dimethylhexadecahydro-1H-cyclopenta[a]phenanthren-17-yl)-2-oxoethyl)-1H-pyrazole-3-carbonitrile]",630,250,–,–,genotype-specific efficacy,no interference of the locomotor functions
"C[C@@]1(O)CC[C@H]2[C@H](CC[C@@H]3[C@@H]2CC(F)(F)[C@]2(C)[C@@H](C(=O)Cn4cc(C#N)cn4)CC[C@@H]32)C1 [Example 6, 1-(2-((3R,5R,8R,9R,10S,13S,14S,17S)-12,12-difluoro-3-hydroxy-3,13-dimethylhexadecahydro-1H-cyclopenta[a]phenanthren-17-yl)-2-oxoethyl)-1H-pyrazole-4-carbonitrile]",470,120,–,–,–,–
